Measured values as given in the supplement of paper PMC11451515.

Tested on: NOMO1
Experiment: cell viability relative to DMSO control; higher = less cytotoxic
Conditions: 48 h
Procedure, shortened: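 NOMO1, SEM and P12-Ichikawa leukemia cells spent at least four passages adapting to each medium before use. They were seeded at 500 cells/well (NOMO1, SEM) or 1000 cells/well (P12-Ichikawa) in 5 μl in 1536-well plates and pin-dosed with library compounds in DMSO at 11 threefold steps from 47 μM down to 0.79 nM. After 48 h at 37°C, CellTiter-Glo One luminescence was read. Viability is reported as a percentage of the DMSO wells on each plate, with cell-free wells as background.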

[1] = HPLM + 10% dialyzed FBS, 0.000781 µM
[2] = HPLM + 10% dialyzed FBS, 0.00234 µM
[3] = HPLM + 10% dialyzed FBS, 0.00702 µM
[4] = HPLM + 10% dialyzed FBS, 0.0211 µM
[5] = HPLM + 10% dialyzed FBS, 0.0632 µM
[6] = HPLM + 10% dialyzed FBS, 0.19 µM
[7] = HPLM + 10% dialyzed FBS, 0.569 µM
[8] = HPLM + 10% dialyzed FBS, 1.71 µM
[9] = HPLM + 10% dialyzed FBS, 5.12 µM
[10] = HPLM + 10% dialyzed FBS, 15.4 µM
[11] = HPLM + 10% dialyzed FBS, 46.1 µM
[12] = RPMI 5 mM glucose + 10% FBS, 0.000781 µM
[13] = RPMI 5 mM glucose + 10% FBS, 0.00234 µM
[14] = RPMI 5 mM glucose + 10% FBS, 0.00702 µM
[15] = RPMI 5 mM glucose + 10% FBS, 0.0211 µM
[16] = RPMI 5 mM glucose + 10% FBS, 0.0632 µM
[17] = RPMI 5 mM glucose + 10% FBS, 0.19 µM
[18] = RPMI 5 mM glucose + 10% FBS, 0.569 µM
[19] = RPMI 5 mM glucose + 10% FBS, 1.71 µM
[20] = RPMI 5 mM glucose + 10% FBS, 5.12 µM
[21] = RPMI 5 mM glucose + 10% FBS, 15.4 µM
[22] = RPMI 5 mM glucose + 10% FBS, 46.1 µM
[23] = RPMI 5 mM glucose + 10% dialyzed FBS, 0.000781 µM
[24] = RPMI 5 mM glucose + 10% dialyzed FBS, 0.00234 µM
[25] = RPMI 5 mM glucose + 10% dialyzed FBS, 0.00702 µM
[26] = RPMI 5 mM glucose + 10% dialyzed FBS, 0.0211 µM
[27] = RPMI 5 mM glucose + 10% dialyzed FBS, 0.0632 µM
[28] = RPMI 5 mM glucose + 10% dialyzed FBS, 0.19 µM
[29] = RPMI 5 mM glucose + 10% dialyzed FBS, 0.569 µM
[30] = RPMI 5 mM glucose + 10% dialyzed FBS, 1.71 µM
[31] = RPMI 5 mM glucose + 10% dialyzed FBS, 5.12 µM
[32] = RPMI 5 mM glucose + 10% dialyzed FBS, 15.4 µM
[33] = RPMI 5 mM glucose + 10% dialyzed FBS, 46.1 µM

SMILES | cell viability [1] | cell viability [2] | cell viability [3] | cell viability [4] | cell viability [5] | cell viability [6] | cell viability [7] | cell viability [8] | cell viability [9] | cell viability [10] | cell viability [11] | cell viability [12] | cell viability [13] | cell viability [14] | cell viability [15] | cell viability [16] | cell viability [17] | cell viability [18] | cell viability [19] | cell viability [20] | cell viability [21] | cell viability [22] | cell viability [23] | cell viability [24] | cell viability [25] | cell viability [26] | cell viability [27] | cell viability [28] | cell viability [29] | cell viability [30] | cell viability [31] | cell viability [32] | cell viability [33]
CCCCc1ccc2[nH]c(NC(=O)OC)nc2c1 | 108% | 103% | 106% | 111% | 95.3% | 37.6% | 31.9% | 33.3% | 42.8% | 37.3% | 47.7% | 102% | 109% | 120% | 110% | 99.8% | 34.2% | 26.1% | 24.4% | 25.8% | 23.8% | 24.2% | 94.2% | 96.6% | 101% | 95.3% | 101% | 37.1% | 29.1% | 27.4% | 31.6% | 34.1% | 31.8%
COc1cc(NCc2ccc3nc(N)nc(N)c3c2C)cc(OC)c1OC | 90.2% | 91.7% | 98.9% | 95.1% | 93.5% | 98.4% | 89.5% | 44.4% | 36% | 34.2% | 15.9% | 79.3% | 88% | 80.9% | 85.7% | 84.7% | 89.3% | 93.5% | 83.2% | 99.6% | 86.9% | 9.99% | 87.2% | 88.5% | 86.2% | 91.1% | 91% | 107% | 94.5% | 81.1% | 68.8% | 37.9% | 16.6%
COc1ccc(CCC(=O)c2c(O)cc(O[C@@H]3O[C@H](CO)[C@@H](O)[C@H](O)[C@H]3O[C@@H]3O[C@@H](C)[C@H](O)[C@@H](O)[C@H]3O)cc2O)cc1O | 105% | 138% | 124% | 122% | 120% | 124% | 117% | 102% | 91.2% | 36.1% | 42.7% | 118% | 140% | 114% | 123% | 119% | 119% | 111% | 107% | 114% | 45.2% | 20.7% | 118% | 121% | 119% | 119% | 135% | 116% | 117% | 113% | 110% | 40.2% | 34.4%
C=CC(=O)Nc1cc2c(Nc3ccc(F)c(Cl)c3)ncnc2cc1C#CC(C)(C)N1CCN(C)CC1 | 112% | 109% | 112% | 89.9% | 92% | 108% | 117% | 89.2% | 55.3% | 6.12% | 6.26% | 95.3% | 93% | 91.7% | 95.4% | 101% | 93.5% | 101% | 95% | 94.6% | 7.56% | 12.7% | 99.2% | 101% | 107% | 95.3% | 86.6% | 103% | 101% | 106% | 52.7% | 8.43% | 5.07%
Clc2cccc(Cl)c2\N=C1/NCCN1 | 117% | 101% | 118% | 105% | 125% | 135% | 121% | 118% | 132% | 128% | 122% | 102% | 113% | 124% | 120% | 112% | 118% | 113% | 124% | 105% | 116% | 111% | 105% | 130% | 109% | 123% | 122% | 121% | 123% | 137% | 120% | 114% | 115%
CO[C@H]1/C=C/O[C@@]2(C)Oc3c(C)c(O)c4c(c3C2=O)C2=NC3(CCN(CC(C)C)CC3)NC2=C(NC(=O)/C(C)=C/C=C/[C@H](C)[C@H](O)[C@@H](C)[C@@H](O)[C@@H](C)[C@H](OC(C)=O)[C@@H]1C)C4=O | 117% | 111% | 146% | 135% | 132% | 127% | 138% | 137% | 127% | 113% | 117% | – | – | – | – | – | – | – | – | – | – | – | – | – | – | – | – | – | – | – | – | – | –
Nc1ccc(C(=O)c2cc3c(ccc4ccccc43)[nH]2)cc1 | 120% | 121% | 123% | 129% | 113% | 112% | 117% | 110% | 89.5% | 40.5% | 26.6% | 118% | 112% | 110% | 117% | 121% | 116% | 101% | 109% | 99.2% | 56.4% | 18.9% | – | – | – | – | – | – | – | – | – | – | –
Cc1ccc(Nc2cc(-c3cccc(N4C(=O)c5ccccc5C4=O)c3)ncn2)cc1N[S+](C)(=O)[O-] | 107% | 113% | 156% | 123% | 127% | 149% | 128% | 140% | 153% | 132% | 107% | – | – | – | – | – | – | – | – | – | – | – | – | – | – | – | – | – | – | – | – | – | –
OC[C@H]1O[C@H](C[C@@H]1O)N2/C=C(C(=O)NC2=O)/C(F)(F)F | 128% | 120% | 106% | 116% | 120% | 114% | 82.8% | 58.8% | 69.7% | 45% | 26.5% | 99.8% | 117% | 116% | 116% | 114% | 107% | 118% | 115% | 107% | 86.9% | 42.9% | 115% | 110% | 121% | 113% | 103% | 113% | 97.4% | 96% | 67.7% | 31.3% | 18.3%
O=C(O)c1cc(O)c2c(c1)C(=O)c1cccc(O)c1C2=O | 113% | 111% | 127% | 107% | 127% | 117% | 127% | 125% | 113% | 104% | 94.3% | 115% | 120% | 116% | 121% | 114% | 101% | 103% | 110% | 107% | 99.5% | 104% | 110% | 119% | 102% | 121% | 112% | 107% | 112% | 119% | 119% | 95.4% | 96.2%
CC[C@H]1OC(=O)[C@H](C)[C@@H](O[C@H]2C[C@@](C)(OC)[C@@H](O)[C@H](C)O2)[C@H](C)[C@@H](O[C@@H]2O[C@H](C)C[C@H](N(C)C)[C@H]2O)[C@](C)(OC)C[C@@H](C)C(=O)[C@H](C)[C@@H](O)[C@]1(C)O | 110% | 121% | 96.8% | 105% | 89.3% | 92.2% | 92.6% | 90.9% | 84.9% | 88.3% | 101% | 103% | 101% | 99.5% | 101% | 97% | 105% | 84% | 92.9% | 81.5% | 79.2% | 81.2% | 86.3% | 87.5% | 83.1% | 92.6% | 93.8% | 87.8% | 79.7% | 80.5% | 84% | 84.4% | 83.4%
COc1cc(C(=O)NC2CCN(C)CC2)ccc1Nc1ncc2c(n1)N(C1CCCC1)CCC(=O)N2C(C)C | 103% | 121% | 110% | 122% | 118% | 112% | 115% | 113% | 115% | 58.3% | 9.06% | 99.3% | 105% | 101% | 108% | 102% | 118% | 102% | 107% | 119% | 75.7% | 15.2% | 92.7% | 113% | 100% | 110% | 100% | 106% | 104% | 117% | 109% | 105% | 20.6%
OC(=O)\C1=C\N(C2CC2)C3=CC(=C(F)C=C3C1=O)N4CCNCC4 | 108% | 117% | 119% | 129% | 113% | 127% | 118% | 134% | 64.4% | 47.5% | 22.5% | 116% | 126% | 104% | 118% | 119% | 113% | 128% | 118% | 90% | 75.1% | 23.5% | 112% | 132% | 119% | 116% | 120% | 122% | 117% | 123% | 88.1% | 63.5% | 33.9%
CC(C)(N)C(=O)N[C@H](COCc1ccccc1)C(=O)N1CCC2(CC1)CN([S+](C)(=O)[O-])c1ccccc12 | – | – | – | – | – | – | – | – | – | – | – | 117% | 122% | 132% | 124% | 123% | 123% | 122% | 115% | 113% | 109% | 110% | – | – | – | – | – | – | – | – | – | – | –
CCC(CCCC)COC(=O)C(\C#N)=C(\c1ccccc1)c2ccccc2 (stereo not drawn) | 76.5% | 102% | 84% | 117% | 101% | 101% | 98.5% | 92.8% | 107% | 98.5% | 107% | 92.6% | 91.8% | 86.2% | 101% | 101% | 93% | 92.5% | 104% | 97.8% | 109% | 105% | 87.4% | 85.8% | 84.4% | 94.6% | 94% | 91.7% | 90.4% | 91.5% | 89.1% | 87.2% | 96.2%
